Data: PubChem BioAssay (NCI)
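Cells were grown in 96-well plates and exposed to each compound for 48 hours at five concentrations; endpoints were interpolated linearly between bracketing concentrations, or set to the highest concentration if not reached. The concentration for 50% growth inhibition is given as GI50. Definition used: TGI = concentration required for complete inhibition of growth.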

Key:
Assay in all cases: NCI tumour cell line growth inhibition, 48 h
OVCAR-3 ovarian = test system: OVCAR-3 ovarian
HT29 colon = test system: HT29 colon
OVCAR-4 ovarian = test system: OVCAR-4 ovarian
BT-549 breast = test system: BT-549 breast
IGROV1 ovarian = test system: IGROV1 ovarian
SK-MEL-5 melanoma = test system: SK-MEL-5 melanoma
HCT-15 colon = test system: HCT-15 colon
NCI-H23 lung = test system: NCI-H23 lung
HOP-92 NSCLC = test system: HOP-92 NSCLC
SN12C renal = test system: SN12C renal
ACHN renal = test system: ACHN renal
COLO 205 colon = test system: COLO 205 colon
SK-MEL-2 melanoma = test system: SK-MEL-2 melanoma
SR leukemia = test system: SR leukemia
LOX IMVI melanoma = test system: LOX IMVI melanoma
SW-620 colon = test system: SW-620 colon
M14 melanoma = test system: M14 melanoma
SNB-75 CNS = test system: SNB-75 CNS
NCI/ADR-RES ovarian = test system: NCI/ADR-RES ovarian
MOLT-4 leukemia = test system: MOLT-4 leukemia
PC-3 prostate = test system: PC-3 prostate
SK-OV-3 ovarian = test system: SK-OV-3 ovarian
CCRF-CEM leukemia = test system: CCRF-CEM leukemia
786-0 renal = test system: 786-0 renal
HCT-116 colon = test system: HCT-116 colon
HCC-2998 colon = test system: HCC-2998 colon
NCI-H226 lung = test system: NCI-H226 lung
CAKI-1 renal = test system: CAKI-1 renal
UO-31 renal = test system: UO-31 renal
SF-295 CNS = test system: SF-295 CNS
HOP-62 NSCLC = test system: HOP-62 NSCLC
KM12 colon = test system: KM12 colon
SF-539 CNS = test system: SF-539 CNS
K-562 leukemia = test system: K-562 leukemia
NCI-H460 lung = test system: NCI-H460 lung
RXF 393 renal = test system: RXF 393 renal
T-47D breast = test system: T-47D breast
EKVX NSCLC = test system: EKVX NSCLC
DU-145 prostate = test system: DU-145 prostate
SF-268 CNS = test system: SF-268 CNS
A498 renal = test system: A498 renal
MALME-3M melanoma = test system: MALME-3M melanoma
SNB-19 CNS = test system: SNB-19 CNS
OVCAR-8 ovarian = test system: OVCAR-8 ovarian
SK-MEL-28 melanoma = test system: SK-MEL-28 melanoma
RPMI-8226 leukemia = test system: RPMI-8226 leukemia
UACC-257 melanoma = test system: UACC-257 melanoma
UACC-62 melanoma = test system: UACC-62 melanoma
NCI-H522 lung = test system: NCI-H522 lung
MDA-MB-435 = test system: MDA-MB-435
MCF7 breast = test system: MCF7 breast
MDA-MB-231 breast = test system: MDA-MB-231 breast
OVCAR-5 ovarian = test system: OVCAR-5 ovarian
HS 578T breast = test system: HS 578T breast
U251 CNS = test system: U251 CNS
HL-60(TB) leukemia = test system: HL-60(TB) leukemia
A549 NSCLC = test system: A549 NSCLC

## COc1ccc2c(c1)c(C1(c3cn(C)c4ccc(OC)cc34)C(=O)Nc3ccc(F)cc31)cn2C
OVCAR-3 ovarian
  GI50: 10.2 µM
  TGI: 87.4 µM
HT29 colon
  GI50: 3.52 µM
  TGI: 23 µM
OVCAR-4 ovarian
  GI50: 3.92 µM
  TGI: > 100 µM
BT-549 breast
  GI50: 10.6 µM
  TGI: 50.8 µM
IGROV1 ovarian
  GI50: 4.26 µM
  TGI: > 100 µM
SK-MEL-5 melanoma
  GI50: 5.64 µM
  TGI: 18.9 µM
HCT-15 colon
  GI50: 5 µM
  TGI: > 100 µM
NCI-H23 lung
  GI50: 6.06 µM
  TGI: > 100 µM
HOP-92 NSCLC
  GI50: 3.84 µM
  TGI: 58.7 µM
SN12C renal
  GI50: 4.82 µM
  TGI: 31.5 µM
ACHN renal
  GI50: 4.63 µM
  TGI: > 100 µM
COLO 205 colon
  GI50: 2.62 µM
  TGI: 6.36 µM
SK-MEL-2 melanoma
  GI50: 3.62 µM
  TGI: 9.64 µM
SR leukemia
  GI50: 5.59 µM
  TGI: 82 µM
LOX IMVI melanoma
  GI50: 4.45 µM
  TGI: > 100 µM
SW-620 colon
  GI50: 7.48 µM
  TGI: > 100 µM
M14 melanoma
  GI50: 4.19 µM
  TGI: 68.8 µM
SNB-75 CNS
  GI50: 3.09 µM
  TGI: > 100 µM
NCI/ADR-RES ovarian
  GI50: 4.66 µM
  TGI: > 100 µM
MOLT-4 leukemia
  GI50: 4.57 µM
  TGI: 50.1 µM
PC-3 prostate
  GI50: 3.88 µM
  TGI: > 100 µM
SK-OV-3 ovarian
  GI50: 12.9 µM
  TGI: > 100 µM
CCRF-CEM leukemia
  GI50: 4.56 µM
  TGI: > 100 µM
786-0 renal
  GI50: 6.51 µM
  TGI: > 100 µM
HCT-116 colon
  GI50: 3.84 µM
  TGI: 15.3 µM
HCC-2998 colon
  GI50: 4.53 µM
  TGI: > 100 µM
NCI-H226 lung
  GI50: 11.9 µM
  TGI: > 100 µM
CAKI-1 renal
  GI50: 2.06 µM
  TGI: 45.3 µM
UO-31 renal
  GI50: 2.27 µM
  TGI: > 100 µM
SF-295 CNS
  GI50: 2.95 µM
  TGI: 18.3 µM
HOP-62 NSCLC
  GI50: 7.62 µM
  TGI: > 100 µM
KM12 colon
  GI50: 5.63 µM
  TGI: > 100 µM
SF-539 CNS
  GI50: 15.6 µM
  TGI: 85.2 µM
K-562 leukemia
  GI50: 4.61 µM
  TGI: > 100 µM
NCI-H460 lung
  GI50: 3.65 µM
  TGI: 14.6 µM
RXF 393 renal
  GI50: 3.74 µM
  TGI: 16.2 µM
T-47D breast
  GI50: 4.75 µM
  TGI: > 100 µM
EKVX NSCLC
  GI50: 3.05 µM
  TGI: > 100 µM
DU-145 prostate
  GI50: 11.5 µM
  TGI: > 100 µM
SF-268 CNS
  GI50: 5.7 µM
  TGI: > 100 µM
A498 renal
  GI50: 13.6 µM
  TGI: 75.3 µM
MALME-3M melanoma
  GI50: 6.52 µM
  TGI: 89.5 µM
SNB-19 CNS
  GI50: 12.2 µM
  TGI: > 100 µM
OVCAR-8 ovarian
  GI50: 4.28 µM
  TGI: > 100 µM
SK-MEL-28 melanoma
  GI50: 5.3 µM
  TGI: 25.5 µM
RPMI-8226 leukemia
  GI50: 6.77 µM
  TGI: > 100 µM
UACC-257 melanoma
  GI50: 5.28 µM
  TGI: > 100 µM
UACC-62 melanoma
  GI50: 7.42 µM
  TGI: 56.2 µM
NCI-H522 lung
  GI50: 2.67 µM
  TGI: 7.75 µM
MDA-MB-435
  GI50: 3.77 µM
  TGI: > 100 µM
MCF7 breast
  GI50: 3.61 µM
  TGI: > 100 µM
MDA-MB-231 breast
  GI50: 2.89 µM
  TGI: 18.6 µM
OVCAR-5 ovarian
  GI50: 9.94 µM
  TGI: 84.8 µM
HS 578T breast
  GI50: 9.01 µM
  TGI: > 100 µM
U251 CNS
  GI50: 4.24 µM
  TGI: > 100 µM

## Cn1c(=O)cc2c3c(c(NCCCO)ccc31)C(=O)c1ccccc1-2
OVCAR-3 ovarian
  GI50: 5.69 µM
  TGI: > 100 µM
HT29 colon
  GI50: 2.16 µM
  TGI: > 100 µM
OVCAR-4 ovarian
  GI50: 7.89 µM
  TGI: > 100 µM
BT-549 breast
  GI50: 6.67 µM
  TGI: > 100 µM
IGROV1 ovarian
  GI50: 4.98 µM
  TGI: > 100 µM
SK-MEL-5 melanoma
  GI50: 3.97 µM
  TGI: > 100 µM
HCT-15 colon
  GI50: 3.86 µM
  TGI: > 100 µM
NCI-H23 lung
  GI50: 3.37 µM
  TGI: > 100 µM
SN12C renal
  GI50: 3.45 µM
  TGI: > 100 µM
ACHN renal
  GI50: 1.21 µM
  TGI: > 100 µM
COLO 205 colon
  GI50: 3.86 µM
  TGI: > 100 µM
SK-MEL-2 melanoma
  GI50: 6.85 µM
  TGI: > 100 µM
SR leukemia
  GI50: 0.694 µM
  TGI: 13.4 µM
LOX IMVI melanoma
  GI50: 1.44 µM
  TGI: 20.7 µM
SW-620 colon
  GI50: 0.875 µM
  TGI: > 100 µM
M14 melanoma
  GI50: 3.13 µM
  TGI: > 100 µM
SNB-75 CNS
  GI50: 4.36 µM
  TGI: > 100 µM
NCI/ADR-RES ovarian
  GI50: 5.2 µM
  TGI: > 100 µM
MOLT-4 leukemia
  GI50: 2.07 µM
  TGI: > 100 µM
PC-3 prostate
  GI50: 3 µM
  TGI: > 100 µM
SK-OV-3 ovarian
  GI50: 9.81 µM
  TGI: > 100 µM
CCRF-CEM leukemia
  GI50: 3.29 µM
  TGI: > 100 µM
786-0 renal
  GI50: 1.53 µM
  TGI: > 100 µM
HCT-116 colon
  GI50: 0.491 µM
  TGI: > 100 µM
HCC-2998 colon
  GI50: 5.23 µM
  TGI: > 100 µM
NCI-H226 lung
  GI50: 3.01 µM
  TGI: > 100 µM
CAKI-1 renal
  GI50: 1.79 µM
  TGI: > 100 µM
UO-31 renal
  GI50: 1.09 µM
  TGI: > 100 µM
SF-295 CNS
  GI50: 1.76 µM
  TGI: > 100 µM
HOP-62 NSCLC
  GI50: 19.2 µM
  TGI: > 100 µM
HL-60(TB) leukemia
  GI50: 2.98 µM
  TGI: > 100 µM
KM12 colon
  GI50: 6.34 µM
  TGI: > 100 µM
SF-539 CNS
  GI50: 8.8 µM
  TGI: > 100 µM
K-562 leukemia
  GI50: 2.09 µM
  TGI: 64.3 µM
NCI-H460 lung
  GI50: 2.31 µM
  TGI: > 100 µM
RXF 393 renal
  GI50: 8.64 µM
  TGI: > 100 µM
T-47D breast
  GI50: 13 µM
  TGI: > 100 µM
EKVX NSCLC
  GI50: 5.23 µM
  TGI: > 100 µM
DU-145 prostate
  GI50: 7.62 µM
  TGI: > 100 µM
SF-268 CNS
  GI50: 6.75 µM
  TGI: > 100 µM
A498 renal
  GI50: 1.77 µM
  TGI: > 100 µM
MALME-3M melanoma
  GI50: 2.12 µM
  TGI: 7.35 µM
SNB-19 CNS
  GI50: 4.46 µM
  TGI: > 100 µM
A549 NSCLC
  GI50: 3.48 µM
  TGI: > 100 µM
OVCAR-8 ovarian
  GI50: 1.48 µM
  TGI: > 100 µM
SK-MEL-28 melanoma
  GI50: 38 µM
  TGI: > 100 µM
RPMI-8226 leukemia
  GI50: 2.89 µM
  TGI: > 100 µM
UACC-257 melanoma
  GI50: 5.37 µM
  TGI: > 100 µM
UACC-62 melanoma
  GI50: 2.45 µM
  TGI: > 100 µM
NCI-H522 lung
  GI50: 2.5 µM
  TGI: > 100 µM
MDA-MB-435
  GI50: 3.47 µM
  TGI: > 100 µM
MCF7 breast
  GI50: 3.46 µM
  TGI: > 100 µM
MDA-MB-231 breast
  GI50: 4.77 µM
  TGI: > 100 µM
OVCAR-5 ovarian
  GI50: 32.8 µM
  TGI: > 100 µM
HS 578T breast
  GI50: 3.68 µM
  TGI: > 100 µM
U251 CNS
  GI50: 2.6 µM
  TGI: > 100 µM
